Entries after “also recorded” stand apart in the source; their conditions may differ. Like-named read-outs stand apart in the source and are kept apart here. A value given as a limit tells only on which side of the number the result lay.

A short description of series [1]: Pharmacokinetic profile, plasma concentrations by LC/MS/MS. The format is in vivo, female Crl: CD1 mice. To be noted: 30 mg/kg; for half-life: plasma; for Cmax / AUC: mice plasma; for Cmax: read-out: observed Cmax. The procedure:
Compounds 1 and 2 were separately dissolved in ethanol (5%), Polysorbate 80 (15%), PEG 400 (5%) and dextrose (5%) at a final concentration of 6 mg/ml (for all parenteral administration routes). For oral administration, Compound 1 was solubilized in Cremophor® EU Ethanol (50%:50%) at a final concentration of 6 mg/ml. Prior to dosing, animals (female Crl: CD1 mice; 6 weeks of age, 22-24 g) were weighed, randomly selected and assigned to the different treatment groups. Compound 1 was administered by the intravenous (iv), subcutaneous (sc), intraperitoneal (ip), or oral (po) route to the assigned animals. Compound 2 was administered by the intravenous (iv), or intraperitoneal (ip) route to the assigned animals. The dosing volume of Compounds 1 and 2 was 5 mL per kg body weight. Animals were anesthetized with 5% isoflurane prior to bleeding. Blood was collected into microtainer tubes containing the anticoagulant K2EDTA by cardiac puncture from each of 4 animals per bleeding timepoint (2 min, 5 min, 15 min, 30 min, 1 h, 2 h, 4 h and 8 h). Following collection, the samples were centrifuged and the plasma obtained from each sample was recovered and stored frozen (at approximately −80° C.) pending analysis. At the 5 min and 30 min time points, the following organs were harvested from each animal: brain, lungs, skeletal muscle, fat tissue, kidneys, spleen, thymus and liver. Tissues were frozen (at approximately −80° C.) pending analysis. Samples were analysed by LC/MS/MS.
Plasma values of Compounds 1 and 2 falling below the limit of quantitation (LOQ) were set to zero. […] The following pharmacokinetic parameters were calculated: area under the plasma concentration versus time curve from time zero to the last measurable concentration time point (AUC0-t), area under the plasma concentration versus time curve extrapolated to infinity (AUCinf), maximum observed plasma concentration (Cmax), time of maximum plasma concentration (tmax), apparent first-order terminal elimination rate constant (kel), apparent first-order terminal elimination half-life will be calculated as 0.693/kel (t1/2). The systemic clearance (CL) of Compound 1 after intravenous administration was calculated using Dose/AUCinf. Pharmacokinetic parameters were calculated using Kinetica™ 4.1.1 (InnaPhase Corporation, Philadelphia, Pa.).

The test system of series [2] is C6 glioblastoma. The series can be described thus: In vivo efficacy in glioma model, second series (treatment started at day 10). Also on record: species or system Mus musculus nude mice. To be noted: for Tumor volume (mm^3) (mean ± SEM): Q1 × 5; for % Inhibition: Q1 × 5, vs saline. The protocol:
Animal experiments were performed according to ethical guidelines of animal experimentation (Charte du comité d'éthique du CNRS, juillet 2003) and the English guidelines for the welfare of animals in experimental neoplasia (WORKMAN, P., […], P., BALKWILL, F., et al. (1998). United Kingdom Coordinating Committee on Cancer Research (UKCCCR) Guidelines for the welfare of animals in experimental neoplasia (Second Edition, July 1997; British Journal of Cancer, 77:1-10). Any dead or apparently sick mice were promptly removed and replaced with healthy mice. Sick mice were euthanized upon removal from the cage. Animals were maintained in rooms under controlled conditions of temperature (23±2° C.), humidity (45±5%), photoperiodicity (12 hrs light/12 hrs dark) and air exchange. Animals were housed in polycarbonate cages (5/single cage) that were equipped to provide food and water. Animal bedding consisted of sterile wood shavings that were replaced every other day. Food was provided ad libitum, being placed in the metal lid on the top of the cage. Autoclaved tap water was provided ad libitum. Water bottles were equipped with rubber stoppers and sipper tubes. Water bottles were cleaned, sterilized and replaced once a week. Two different numbers engraved on two earrings identified the animals. Each cage was labeled with a specific code.
Tumor Cell Line: The C6 cell line was cloned from a rat glial tumor induced by N-nitrosomethyurea (NMU) according to Premont et al. (Premont J, Benda P, Jard S., [3H] norepinephrine binding by rat glial cells in culture. Lack of correlation between binding and adenylate cyclase activation. Biochim Biophys Acta. 1975 Feb. 13;381(2):368-76.) after series of alternate culture and animal passages. Cells were grown as adherent monolayers at 37° C. in a humidified atmosphere (5% CO2, 95% air). The culture medium was DMEM supplemented with 2 mM L-glutamine and 10% fetal bovine serum. For experimental use, tumor cells were detached from the culture flask by a 10 min treatment with trypsin-versen. The cells were counted in a hemocytometer and their viability assessed by 0.25% trypan blue exclusion.
Preparation of the Test Article: For the test article, the following procedure was followed for reconstitution (performed immediately preceding injection). The vehicle consisted of a mixture of benzyl alcohol (1.5%), ethanol (8.5%), propylene glycol (27%), PEG 400 (27%), dimethylacetamide (6%) and water (30%). The vehicle solution was first vortexed in order to obtain a homogeneous liquid. 0.6 mL of the vortexed vehicle solution was added to each vial containing the test article (Compound 1). Vials were mixed thoroughly by vortexing for 1 minute and inverted and shaken vigorously. Vials were mixed again prior to injection into each animal.
Animal Inoculation with tumor cells: Experiment started at day 0 (D0). On D0, mice received a superficial intramuscular injection of C6 tumor cells (5×10^5 cells) in 0.1 mL of DMEM complete medium into the upper right posterior leg.
In a second series of experiments, treatment started at day 10 following inoculation of C6 cells when tumors became palpable (around 100 to 200 mm^3). Treatment was repeated daily for 5 consecutive days. On the day of the treatment, each mouse was slowly injected with 100 μL of Compound 1 by i.p. route. Mice of group 1 were treated daily with saline isosmotic solution. Mice of group 2 were treated daily with the vehicle solution. Mice of group 3 were treated daily with 20 mg/kg of Compound 1. Mice of group 4 were treated daily with 30 mg/kg of Compound 1. Mice were treated until the tumor volume of the saline-treated control mice (group 1) reached around 4 cm^3. Tumor volume was measured every second day until the end of the treatment using callipers. […] An asterisk in the P value column of Table 20 indicates a statistically significant value, while “ns” signifies not significant.

Series [3] relates to HT-29 (colorectal carcinoma). The series can be described thus: In vitro cytotoxic activity (GI50), method (b), propidium iodide. The format is cell-based. To be noted: Homo sapiens, 96 hrs. The procedure: (§1) Row H was filled wih medium only (150 μL, negative control-medium).
In series [4] the test system is MDA-MB-231 (mammary gland adenocarcinoma). The description is as above. The format is cell-based. To be noted: Homo sapiens, 96 hrs. The procedure: as §1
The test system of series [5] is SF268 (CNS). Described as above. The format is cell-based. Conditions: Homo sapiens, SF-268, 96 hrs. The protocol:
as §1

Series [6] relates to PC-3 (prostate adenocarcinoma). Described as above. The format is cell-based. Conditions: 96 hrs. The procedure: as §1
The subject of series [7] is HT-29, SF-268, PC-3, MDA-MB-231. The series is described as follows: Average GI50 over the four cell lines, method (b). The format is cell-based. Conditions: for GI50: values > 30 not considered. The procedure: as §1
Setting [8] is: female, Crl: CD1, mouse, iv, read-out: AUC.

Regarding `CC(C)=CCC/C(C)=C/CC/C(C)=C/CN1C(=O)c2cccc(O)c2Nc2c(O)cc(O)cc21` [Compound 1, 10-farnesyl-4,6,8-trihydroxy-5,10-dihydrodibenzo[b,e][1,4]diazepin-11-one], the half-life in series [1] (female, Crl: CD1, mouse, iv, I.V., read-out: half life t1/2 α) was 0.0767 h; in series [1] (female, Crl: CD1, mouse, iv, I.V., read-out: half life t1/2 β (converted)) it was 2.56 h. The Cmax in series [1] (female, Crl: CD1, mouse, ip) stood at 2.25 µg/mL; in series [1] (female, Crl: CD1, mouse, iv) it was 130 µg/mL. Besides, the figures for the AUC in series [1] (setting [8]) and in series [1] (ip) were 40.4 µM·h and 9.5 ˜M·h, respectively. Also, the “drug levels after oral administration” value in series [1] (oral) is listed as “moderate but sustained drug levels”. For the same compound, the orally bioavailable level in series [1] (oral) is recorded as 5-8%. For the same compound, the figures for the “Tumor volume (mm^3) (mean ± SEM)” value in series [2] (20 mg/kg i.p.) and in series [2] (30 mg/kg i.p.) were 1,721.5 ± 374.79 mm^3 and 1,131.6 ± 525.21 mm^3, respectively. Also, the results for the “% Inhibition” value in series [2] (20 mg/kg i.p.) and in series [2] (30 mg/kg i.p.) were 60.5% and 74.1%, respectively. Further, in series [2] (20-30 mg/kg), the “Histological analysis of tumor sections” value was “cell density of tumor treated with Compound 1 appears decreased; also recorded: cell density was decreased and the nuclei of remaining tumor cells appeared larger and pycnotic”. Moreover, in series [2] (20-30 mg/kg i.p., compared to the saline group), the “mean value of the tumor volume of all treated groups” value is listed as “significantly reduced”. For the same compound, the GI50 in series [3] was found to be 9.33 µM; in series [4], 3.18 µM; in series [5], 1.55 µM; in series [6] it was 3.76 µM; in series [7], 4.45 µM.

Take `CC(C)=CCC/C(C)=C/CC/C(C)=C/CN1C(=O)c2cccc(O)c2N(C)c2c(O)cc(O)cc21` [Compound 2, 10-farnesyl-4,6,8-trihydroxy-5-methyl-5,10-dihydro-dibenzo[b,e][1,4]diazepin-11-one]: the half-life was over 40 h in series [1] (female, Crl: CD1, mouse, ip, IP administration, read-out: half life (t1/2)) and over 40 h in series [1] (female, Crl: CD1, mouse, iv, IV administration, read-out: half life (t1/2)). Besides, the AUC worked out at 58.8 µM·h in series [1] (female, Crl: CD1, mouse, ip, read-out: AUC) and 92.1 µM·h in series [1] (setting [8]). Further, the Cmax stood at 5.8 µg/mL in series [1] (female, Crl: CD1, mouse, ip) and 105 µg/mL in series [1] (female, Crl: CD1, mouse, iv). Moreover, the GI50 in series [3] worked out at 0.65 µM; in series [4] it was 0.24 µM; in series [5], 0.12 µM; in series [6] it was 0.45 µM; in series [7], 0.36 µM. For the same compound, the “anticancer activity compared with Compound 1” value in series [7] (four cell lines) is “better anticancer activity than Compound 1”.

Values taken from patent US20060079512A1, “Dibenzodiazepinone analogues, processes for their production and their use as pharmaceuticals” (Ecopia BioSciences, Inc., priority 2003, published 2006).
